According to the supplement of paper PMC10307832:

Assays:
Experiment in all cases: relative viability (nuclei count vs DMSO), 5 days (fraction); higher = more cells survive
[1] = compound: C[C@@]1(C(=O)Nc2ccc(F)nc2)CCCN1c1nc(Nc2cc(C3CC3)n[nH]2)c2cccn2n1 + O=C(CCCCCCC(=O)Nc1ccccc1)NO [Vorinostat] (partner 1 µM)
In short: (§1)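 Nuclei were stained with Hoechst during a one-step fixation (final 0.05% Triton X-100, 1% formaldehyde, 1 ug/ml Hoechst) carried out 5 days after dosing, then counted on 4× images. The cells, lung cancer lines in 1536-well plates, had been dosed by pin tool the day after seeding with one drug alone or a fixed anchor-drug dose plus five library-drug doses (not always all listed) in √10 steps. Relative viability is the nuclei count in treated wells divided by that in vehicle wells, and each value is the median of duplicate plates.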

Motesanib + Phenformin = compound: CC1(C)CNc2cc(NC(=O)c3cccnc3NCc3ccncc3)ccc21 [Motesanib] + N=C(N)NC(=N)NCCc1ccccc1 [Phenformin] (partner 250 µM)
In short: as §1

[2] = compound: C[C@@]1(C(=O)Nc2ccc(F)nc2)CCCN1c1nc(Nc2cc(C3CC3)n[nH]2)c2cccn2n1 + CS(=O)(=O)CCNCc1ccc(-c2ccc3ncnc(Nc4ccc(OCc5cccc(F)c5)c(Cl)c4)c3c2)o1 [Lapatinib] (partner 2 µM)
In short: as §1

Motesanib + Vorinostat = compound: CC1(C)CNc2cc(NC(=O)c3cccnc3NCc3ccncc3)ccc21 [Motesanib] + O=C(CCCCCCC(=O)Nc1ccccc1)NO [Vorinostat] (partner 1 µM)
In short: as §1

Row | Cell Line | relative viability ([1]; first compound 0.04 µM) | relative viability ([1]; first compound 0.1265 µM) | relative viability ([1]; first compound 0.4 µM) | relative viability ([1]; first compound 1.265 µM) | relative viability (Motesanib + Phenformin; first compound 0.01 µM) | relative viability (Motesanib + Phenformin; first compound 0.03162 µM) | relative viability (Motesanib + Phenformin; first compound 0.1 µM) | relative viability (Motesanib + Phenformin; first compound 0.3162 µM) | relative viability (Motesanib + Phenformin; first compound 1 µM) | relative viability ([2]; first compound 0.04 µM) | relative viability ([2]; first compound 0.1265 µM) | relative viability ([2]; first compound 0.4 µM) | relative viability ([2]; first compound 1.265 µM) | relative viability (Motesanib + Vorinostat; first compound 0.01 µM) | relative viability (Motesanib + Vorinostat; first compound 0.03162 µM) | relative viability (Motesanib + Vorinostat; first compound 0.1 µM) | relative viability (Motesanib + Vorinostat; first compound 0.3162 µM) | relative viability (Motesanib + Vorinostat; first compound 1 µM)
1 | RERF-LC-KJ | 0.747 | 0.605 | 0.621 | 0.467 | 0.462 | 0.389 | 0.407 | 0.373 | 0.467 | 0.793 | 0.715 | 0.692 | 0.696 | 0.625 | 0.711 | 0.745 | 0.808 | 0.789
2 | LXF-289 | 0.815 | 0.701 | 0.73 | 0.792 | 0.526 | 0.478 | 0.573 | 0.529 | 0.521 | 0.914 | 0.856 | 0.831 | 0.802 | 0.766 | 0.719 | 0.78 | 0.932 | 0.751
3 | PC-14 | 0.792 | 0.102 | 0.45 | 0.204 | 0.471 | 0.53 | 0.663 | 0.604 | 0.586 | 0.329 | 0.282 | 0.264 | 0.271 | 0.702 | 0.867 | 0.778 | 0.806 | 0.771
4 | NCI-H650 | 0.42 | 0.195 | 0.334 | 0.257 | 0.457 | – | 0.492 | 0.544 | 0.434 | 0.853 | 0.828 | 0.625 | 0.55 | 0.435 | 0.439 | 0.554 | 0.549 | 0.477
5 | NCI-H1666 | 0.965 | 0.729 | 0.77 | 0.82 | 0.558 | 0.552 | 0.591 | 0.607 | 0.612 | 0.455 | 0.391 | 0.237 | 0.296 | 0.926 | 0.978 | 1.06 | 1 | 1.02
6 | NCI-H2085 | 0.779 | 0.728 | 0.69 | 0.569 | 0.745 | 0.759 | 0.756 | 0.781 | 0.759 | 0.808 | 0.639 | 0.661 | 0.62 | 0.825 | 0.823 | 0.821 | 0.824 | 0.866
7 | NCI-H1734 | 0.71 | 0.58 | 0.486 | 0.421 | 0.36 | 0.368 | – | 0.36 | 0.468 | 1 | 0.814 | 0.817 | 0.98 | 0.741 | 0.821 | 0.813 | 0.805 | 0.865
8 | NCI-H2126 | 0.595 | 0.352 | 0.315 | 0.425 | 0.525 | 0.557 | 0.511 | 0.567 | 0.579 | 0.693 | 0.454 | 0.376 | 0.399 | 0.858 | 0.774 | 0.643 | 0.926 | 0.813
9 | EMC-BAC-2 | 0.37 | 0.343 | 0.304 | 0.178 | 0.527 | 0.507 | 0.581 | 0.56 | 0.539 | 0.856 | 0.671 | 0.572 | 0.622 | 0.408 | 0.475 | 0.426 | 0.417 | 0.43
10 | NCI-H1993 | 0.663 | 0.413 | 0.44 | 0.422 | 0.489 | 0.501 | 0.516 | 0.564 | 0.451 | 0.797 | – | 0.663 | 0.592 | 0.63 | 0.757 | 0.881 | 0.746 | 0.813
11 | NCI-H520 | 0.668 | 0.668 | 0.685 | 0.489 | 0.538 | 0.671 | 0.468 | 0.587 | 0.499 | 0.98 | 0.841 | 0.826 | 0.875 | 0.664 | 0.759 | 0.687 | 0.734 | 0.686
12 | NCI-H647 | 0.711 | 0.574 | 0.489 | 0.289 | 0.491 | 0.554 | 0.462 | 0.657 | 0.524 | 1.07 | 1.03 | 0.84 | 0.457 | 0.506 | 0.575 | 0.567 | 0.769 | 0.894
13 | SK-LU-1 | 0.804 | 0.761 | 0.55 | 0.367 | 0.489 | 0.5 | 0.539 | 0.569 | 0.591 | 0.821 | 0.861 | 0.598 | 0.577 | 0.792 | 0.745 | 0.839 | 0.743 | 0.813
14 | NCI-H1650 | 0.568 | 0.445 | 0.494 | 0.311 | 0.489 | 0.304 | 0.394 | 0.417 | 0.403 | 0.894 | 0.679 | 0.656 | 0.402 | 0.642 | 0.6 | 0.714 | 0.67 | 0.571
15 | NCI-H2009 | 0.789 | 0.768 | 0.747 | 0.598 | 0.491 | 0.36 | 0.544 | 0.481 | 0.487 | 1.04 | 1.02 | 0.856 | 0.607 | 0.671 | 0.636 | 0.823 | 0.729 | 0.71
16 | LOU-NH91 | 0.961 | 0.856 | 0.747 | 0.711 | 0.672 | 0.736 | 0.78 | 0.75 | 0.78 | 0.671 | 0.567 | 0.601 | 0.564 | 0.918 | 0.932 | 0.993 | 1 | 0.992
